In ChEMBL document CHEMBL1275399, “Novel potent orally active multitargeted receptor tyrosine kinase inhibitors: synthesis, structure-activity relationships, and antitumor activities of 2-indolinone derivatives” (J Med Chem, 2010):

Columns and labels:
[1] = target: Mast/stem cell growth factor receptor Kit (Homo sapiens, UniProt P10721); assay: Inhibition of c-Kit after 30 mins by ELISA
[2] = target: Platelet-derived growth factor receptor beta (Homo sapiens, UniProt P09619); assay: Inhibition of human PDGFRbeta after 30 mins by ELISA
[3] = Cmax in Sprague-Dawley rat at 10 mg/kg, po and 10 mg/kg iv; format: ADME, organism-based; settings: in vivo
[4] = tested on: Rattus norvegicus; assay: AUC in Sprague-Dawley rat at 40 mg/kg, po; format: ADME, organism-based, Plasma; design: dose 40 mg/kg, route oral; settings: in vivo
[5] = Half life in Sprague-Dawley rat at 10 mg/kg, po and 10 mg/kg iv; format: ADME, organism-based; settings: in vivo
[6] = Clearance in Sprague-Dawley rat at 10 mg/kg, po and 10 mg/kg iv; format: ADME, organism-based; settings: in vivo
[7] = Volume of distribution in Sprague-Dawley rat at 10 mg/kg, po and 10 mg/kg iv; format: ADME, organism-based; settings: in vivo
[8] = Oral bioavailability in Sprague-Dawley rat at 10 mg/kg; format: ADME, organism-based; settings: in vivo
[9] = tested on: HT-29; assay: Antitumor activity against human HT-29 cells xenografted in po dosed BALB/cA nude mouse assessed as inhibition of tumor growth administered 11 days after tumor implantation qd for 14 days; format: functional, organism-based
[10] = tested on: Mus musculus; assay: Toxicity in human HT-29 cells xenografted BALB/cA nude mouse assessed as weight loss at up to 30 mg/kg, po administered 11 days after tumor implantation qd for 14 days; format: organism-based; design: dose 30 mg/kg, route oral; settings: in vivo
[11] = tested on: Mus musculus; assay: Toxicity in human HT-29 cells xenografted BALB/cA nude mouse assessed as mortality at up to 30 mg/kg, po administered 11 days after tumor implantation qd for 14 days; format: organism-based; design: dose 30 mg/kg, route oral; settings: in vivo
[12] = tested on: HT-29; assay: animal or person; settings: Mus musculus, HT-29, po, read-out: TGI
Description: Antitumor activity against human HT-29 cells xenografted in BALB/cA nude mouse assessed as inhibition of tumor growth at 10 mg/kg, po administered 11 days after tumor implantation qd for 14 days

[13] = tested on: HT-29; assay: animal or person; settings: Mus musculus, HT-29, po, read-out: TGI; remark: listed apart in the source
Description: Antitumor activity against human HT-29 cells xenografted in BALB/cA nude mouse assessed as inhibition of tumor growth at 30 mg/kg, po administered 11 days after tumor implantation qd for 14 days

Mast/stem cell growth factor receptor Kit, sequence (P10721 whole entry): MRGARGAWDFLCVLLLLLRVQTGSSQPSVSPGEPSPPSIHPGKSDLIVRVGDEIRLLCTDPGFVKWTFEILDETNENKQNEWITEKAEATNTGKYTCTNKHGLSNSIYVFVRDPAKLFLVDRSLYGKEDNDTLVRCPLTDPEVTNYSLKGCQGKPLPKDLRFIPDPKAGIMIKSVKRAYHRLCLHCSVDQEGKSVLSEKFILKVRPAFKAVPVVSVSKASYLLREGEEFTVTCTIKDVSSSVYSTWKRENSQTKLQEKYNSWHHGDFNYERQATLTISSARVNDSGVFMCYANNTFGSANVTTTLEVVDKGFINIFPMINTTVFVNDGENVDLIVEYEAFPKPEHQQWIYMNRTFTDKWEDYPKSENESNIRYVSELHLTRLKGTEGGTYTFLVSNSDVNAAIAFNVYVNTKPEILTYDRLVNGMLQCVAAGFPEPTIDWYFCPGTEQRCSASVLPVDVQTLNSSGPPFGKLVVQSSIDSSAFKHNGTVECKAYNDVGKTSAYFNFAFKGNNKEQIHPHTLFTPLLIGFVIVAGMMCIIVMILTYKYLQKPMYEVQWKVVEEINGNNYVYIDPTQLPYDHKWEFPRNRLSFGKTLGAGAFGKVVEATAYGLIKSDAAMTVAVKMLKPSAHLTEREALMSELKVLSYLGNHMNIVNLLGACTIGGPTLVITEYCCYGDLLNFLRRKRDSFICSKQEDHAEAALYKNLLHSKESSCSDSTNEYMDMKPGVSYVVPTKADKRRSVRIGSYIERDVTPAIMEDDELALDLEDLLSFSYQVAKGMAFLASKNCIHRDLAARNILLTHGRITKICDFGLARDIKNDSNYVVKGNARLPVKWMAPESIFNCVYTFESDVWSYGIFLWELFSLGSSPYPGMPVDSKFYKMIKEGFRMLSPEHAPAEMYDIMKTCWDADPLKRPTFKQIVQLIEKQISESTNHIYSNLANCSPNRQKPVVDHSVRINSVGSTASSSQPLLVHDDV
Platelet-derived growth factor receptor beta, sequence (P09619 whole entry): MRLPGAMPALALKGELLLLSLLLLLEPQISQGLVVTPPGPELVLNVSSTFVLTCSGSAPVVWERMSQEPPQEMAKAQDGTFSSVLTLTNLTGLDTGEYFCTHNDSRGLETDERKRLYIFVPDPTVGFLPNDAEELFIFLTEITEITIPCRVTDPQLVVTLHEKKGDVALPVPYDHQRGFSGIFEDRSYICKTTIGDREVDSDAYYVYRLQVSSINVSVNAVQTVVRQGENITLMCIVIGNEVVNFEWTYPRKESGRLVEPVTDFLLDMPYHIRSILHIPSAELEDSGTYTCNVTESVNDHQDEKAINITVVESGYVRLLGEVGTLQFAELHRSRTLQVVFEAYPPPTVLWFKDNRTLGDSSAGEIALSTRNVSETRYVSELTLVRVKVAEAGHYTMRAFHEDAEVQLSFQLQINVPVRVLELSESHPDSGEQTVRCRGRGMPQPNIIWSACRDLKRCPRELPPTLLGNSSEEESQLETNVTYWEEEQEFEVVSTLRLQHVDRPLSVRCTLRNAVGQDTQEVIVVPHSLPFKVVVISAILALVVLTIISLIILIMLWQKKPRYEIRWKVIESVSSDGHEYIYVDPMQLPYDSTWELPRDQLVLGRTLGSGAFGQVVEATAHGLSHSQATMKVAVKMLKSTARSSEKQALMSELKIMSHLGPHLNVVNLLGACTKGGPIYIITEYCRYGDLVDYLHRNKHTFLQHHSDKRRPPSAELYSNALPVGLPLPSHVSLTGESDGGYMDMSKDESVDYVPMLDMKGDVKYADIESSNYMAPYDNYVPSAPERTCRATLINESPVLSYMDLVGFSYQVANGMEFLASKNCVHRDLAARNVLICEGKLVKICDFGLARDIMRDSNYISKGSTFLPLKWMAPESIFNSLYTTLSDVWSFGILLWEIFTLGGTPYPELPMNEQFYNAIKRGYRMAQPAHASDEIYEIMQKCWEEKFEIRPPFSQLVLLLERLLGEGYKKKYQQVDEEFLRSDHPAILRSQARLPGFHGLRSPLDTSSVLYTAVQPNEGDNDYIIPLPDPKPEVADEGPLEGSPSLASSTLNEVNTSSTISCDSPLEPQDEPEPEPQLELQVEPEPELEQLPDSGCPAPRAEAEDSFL

Cc1c(/C=C2\C(=O)Nc3ccc(F)cc32)[nH]c2c1C(=O)N(CCN(C)C)CC2
IC50 [1]: 1 nM | IC50 [2]: 3 nM

CCN(CC)CCN1CCc2[nH]c(/C=C3\C(=O)Nc4ccc(F)cc43)c(C)c2C1=O [FAMITINIB]
IC50 [1]: 2 nM | IC50 [2]: 4 nM | Cmax [3]: 450 ng/mL | AUC [4]: 10.96 ug/hr.ml | half-life [5]: 18 h | clearance [6]: 64.5 mL/min/kg | Vd [7]: 97.4 L/kg | bioavailability [8]: 36.7% | Activity [9]: Dose-dependent effect | Activity [10]: Toxic | Activity [11]: Toxic | inhibition in vivo at 10 mg/kg [12]: 49.8%

CCN(CC)CCN1CCc2[nH]c(/C=C3\C(=O)Nc4ccc(Br)cc43)c(C)c2C1=O
IC50 [1]: 4 nM | IC50 [2]: 3 nM

Cc1c(/C=C2\C(=O)Nc3ccc(F)cc32)[nH]c2c1C(=O)N(C[C@H](O)CN1CCOCC1)CCC2 [HENATINIB]
IC50 [1]: 8 nM | IC50 [2]: 11 nM | Cmax [3]: 9030 ng/mL | AUC [4]: 49.21 ug/hr.ml | half-life [5]: 3.76 h | clearance [6]: 21 mL/min/kg | Vd [7]: 5.1 L/kg | bioavailability [8]: 55.2% | Activity [9]: Dose-dependent effect | inhibition in vivo at 10 mg/kg [12]: 51.7%

Cc1c(/C=C2\C(=O)Nc3ccc(F)cc32)[nH]c2c1C(=O)N(C[C@H](O)CN1CCOCC1)CC2
IC50 [1]: 1 nM | IC50 [2]: 8 nM | Cmax [3]: 6110 ng/mL | AUC [4]: 41.18 ug/hr.ml | half-life [5]: 3.41 h | clearance [6]: 17 mL/min/kg | Vd [7]: 4.13 L/kg | bioavailability [8]: 50.7%

CCN(CC)CCN1CCCCc2[nH]c(/C=C3\C(=O)Nc4ccc(F)cc43)c(C)c2C1=O
IC50 [1]: 9 nM | IC50 [2]: 13 nM

CCN(CC)CCNC(=O)c1c(C)[nH]c(/C=C2\C(=O)Nc3ccc(F)cc32)c1C [SUNITINIB]
Activity [9]: Dose-dependent effect | inhibition in vivo at 30 mg/kg [13]: 53.8%

Cc1c(/C=C2\C(=O)Nc3ccc(F)cc32)[nH]c2c1C(=O)N(CCN1CCCC1)CC2
IC50 [1]: 3 nM | IC50 [2]: 4 nM

Cc1c(/C=C2\C(=O)Nc3ccc(F)cc32)[nH]c2c1C(=O)N(CCN1CCOCC1)CC2
IC50 [1]: 1 nM | IC50 [2]: 10 nM

CCN(CC)CCN1CCCc2[nH]c(/C=C3\C(=O)Nc4ccc(F)cc43)c(C)c2C1=O
IC50 [1]: 4 nM | IC50 [2]: 10 nM | Cmax [3]: 2410 ng/mL | AUC [4]: 27.61 ug/hr.ml | half-life [5]: 9.65 h | clearance [6]: 22.8 mL/min/kg | Vd [7]: 18.8 L/kg | bioavailability [8]: 65.8%

CCN(CC)CCN1CCc2[nH]c(/C=C3\C(=O)Nc4ccc(Cl)cc43)c(C)c2C1=O
IC50 [1]: 4 nM | IC50 [2]: 2 nM

Cc1c(/C=C2\C(=O)Nc3ccc(F)cc32)[nH]c2c1C(=O)N(CCN1CCOCC1)CCC2
IC50 [1]: 4 nM | IC50 [2]: 5 nM
